Measurements: paper PMC8698759, “Gold(I) Complexes Bearing Alkylated 1,3,5-Triaza-7-phosphaadamantane Ligands as Thermoresponsive Anticancer Agents in Human Colon Cells” (Biomedicines, 2021)

Assays:
p53 in Caco-2 cells = assay: Determination of p53 by flow cytometry; assay type: cell-based, human; conditions: Caco-2, 48 h, versus non-treated cells
Description: Caco-2 cells were seeded in 75 cm^2 flask at a density of 1 × 10^4 cells/cm^2 and, 24 h later, exposed to drug panel for 48 h. Then cells were collected and processed following instructions by Sánchez-de-Diego et al. Finally, 50 µL of every sample were incubated with 5 µL anti-active caspase-3 (BD Pharmigen, Clone C92-605) and 5 µL p53 antibody (Miltenyi, Clone REA609).

Recombinant Human TrxR1 = biological target: T1, Recombinant Human TrxR1 (Homo sapiens, UniProt Q16881); assay: Thioredoxin reductase 1 (TrxR1) activity assay; assay type: biochemical; conditions: auranofin 25 µM; 3a and 3b at IC50 concentrations
T1 construct: purchased Sigma-Aldrich SRP6081
T1 sequence (Q16881 151-649 limits assumed): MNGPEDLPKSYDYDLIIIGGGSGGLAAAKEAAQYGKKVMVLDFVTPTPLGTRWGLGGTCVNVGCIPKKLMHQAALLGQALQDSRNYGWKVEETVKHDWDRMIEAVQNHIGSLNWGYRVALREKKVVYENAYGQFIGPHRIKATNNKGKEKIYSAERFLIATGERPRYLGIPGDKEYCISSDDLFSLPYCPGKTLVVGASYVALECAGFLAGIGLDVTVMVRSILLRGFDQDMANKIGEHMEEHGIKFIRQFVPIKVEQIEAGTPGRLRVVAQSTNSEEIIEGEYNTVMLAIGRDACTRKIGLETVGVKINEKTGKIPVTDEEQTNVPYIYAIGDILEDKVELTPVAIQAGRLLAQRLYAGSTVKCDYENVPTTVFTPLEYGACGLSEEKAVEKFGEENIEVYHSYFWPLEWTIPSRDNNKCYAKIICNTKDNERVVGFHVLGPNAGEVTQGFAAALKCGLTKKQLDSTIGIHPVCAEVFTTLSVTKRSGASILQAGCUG
Description: Recombinant Human TrxR1 (Sigma-Aldrich SRP6081, St. Louis, MO, USA) was incubated in a 96 well plate with different concentration of Au complex previously dissolved in 25 μL of PBS at pH 7.4. The cell solution was incubated in shake motion for 5 min at 37 °C. After incubation time, procedure in Thioredoxin Reductase Assay Kit (Sigma-Aldrich CS0170, St. Louis, MO, USA) was followed. Finally, reaction was started by adding 6 μL DNTB and absorbance at 405 nm was recorded every 30 s for 22 min as a measure of Thioredoxin Reductase Activity.

Caco-2 cells = assay: Mitochondrial membrane potential assay by flow cytometry (DilC1); assay type: cell-based, human; conditions: Caco-2, 48 h; 3a 5.0 µM, 3b 10.2 µM
Description: Caco-2 cells were seeded in 75 cm^2 flasks at a density of 1 × 10^4 cells/cm^2 and 24 h post-seeding medium was replaced with medium containing drug panel and incubated for 48 h. Then. cells were washed twice and resuspended in PBS at a concentration of 10^6 cells/mL before incubation with 5 µL of 10 µM 1,1′,3,3,3′-hexamethylindodicarbo-cyanine iodide (DilC1).

SMILES: CCCCCCCC[N+]12CN3CN(C1)C[P+]([Au-][S]c1ccccn1)(C3)C2.[I-] [Complex 3a, [Au(C5H5NS)(PTA-CH2(CH2)6CH3)]I]
- p53 accumulation (p53 in Caco-2 cells): could induce p53 accumulation
- TrxR1 activity related to control (Recombinant Human TrxR1): Inhibitory effect
- mitochondrial depolarisation (cells with reduced ΔΨm) (Caco-2 cells): induced mitochondrion depolarisation

SMILES: FC(F)(F)C(F)(F)C(F)(F)C(F)(F)C(F)(F)C(F)(F)CC[N+]12CN3CN(C1)C[P+]([Au-][S]c1ccccn1)(C3)C2.O=S(=O)([O-])C(F)(F)F [Complex 3b, [Au(C5H5NS)(PTA-CH2CH2(CF2)5CF3)](TfO)]
- p53 accumulation (p53 in Caco-2 cells): could induce p53 accumulation
- TrxR1 activity related to control (Recombinant Human TrxR1): Inhibitory effect
- mitochondrial depolarisation (cells with reduced ΔΨm) (Caco-2 cells): induced mitochondrion depolarisation
